The structures appear in SMILES notation.

This test has as its target T1, recombinant GSK-3β enzyme (Homo sapiens, UniProt P49841).
T1 construct: FLAG (N); made in house; host or cells: Sf-21 insect cells, recombinant baculovirus (pFASTBAC1, BAC-TO-BAC)
The test can be described thus: GSK-3β inhibitory activity evaluation (Kinase Glo luminescence, recombinant enzyme). Type of test: biochemical. Particulars: recombinant human GSK-3β 100 ng, glycogen synthase-derived substrate peptide, 2.5 μM ATP solution, 30 min room temperature. How it is done: Human GSK-3β gene was cloned by PCR using human brain cDNA (Clontech; trade name: QUICK-Clone cDNA) as a template and a primer set (GSK3β-U: 5′-[…] CTT-3′ (SEQ ID NO: 1) and GSK3β-L: 5′-[…]-3′ (SEQ ID NO: 2)) prepared by reference to the base sequence of GSK-3β gene registered under an accession No. NM_002093 in the GenBank.
PCR was performed according to the protocol attached to KOD plus DNA polymerase (TOYOBO CO., LTD.). The obtained PCR product was subjected to agarose gel (1%) electrophoresis, and DNA fragment (1.2 kb) containing GSK-3β gene was recovered from the gel, and digested with restriction enzymes EcoR I and Sal I. DNA after treatment with restriction enzymes was subjected to agarose gel (1%) electrophoresis, and the obtained DNA fragment was recovered, and ligated to plasmid pFASTBAC1 (Invitrogen) digested with restriction enzymes EcoR I and Sal I to give expression plasmid pFB-GSK3β. The base sequence of the inserted fragment was confirmed to match the object sequence. Using BAC-TO-BAC Baculovirus Expression System (Invitrogen), virus stock BAC-GSK3β of recombinant Baculovirus was prepared.
Sf-21 cells (Invitrogen) were inoculated to 150 ml Sf-900 II SEM medium (Invitrogen) containing 10% fetal bovine serum to 1×10^6 cells/ml and cultured at 27° C. for 24 hr. To the obtained culture medium was added the virus stock BAC-GSK3β of recombinant Baculovirus obtained above by 150 μl each, and the cells were further cultured for 60 hr. The culture medium was centrifuged (3000 rpm, 10 min) to separate the cells, and the cells were washed once with PBS. The cells were suspended in 10 ml of cell lysis buffer (25 mM HEPES (pH 7.5), 1% Triton X, 130 mM sodium chloride, 1 mM EDTA, 1 mM Dithiothreitol, 25 mM β-glycerophosphate, Protease inhibitor Complete (Boehringer), 1 mM sodium orthovanadate), treated 4 times in a homogenizer (POLYTRON) at 20000 rpm, 30 sec to disrupt the cells. The cell disrupt solution was centrifuged (40000 rpm, 45 min), and GSK-3β was purified from the obtained supernatant using Anti-FLAG M2 Affinity Gel (Sigma Ltd.).
To 37.5 μl of a reaction solution (25 mM HEPES (pH 7.5), 10 mM magnesium acetate, 1 mM DTT, 0.01% bovine serum albumin (Wako Pure Chemical Industries, Ltd.)) containing recombinant GSK-3β enzyme (100 ng) obtained above and substrate peptide ([…]pSEDEEE (SEQ ID NO: 3), pS is phosphorylated serine) (100 ng) derived from glycogen synthase was added a test compound (2.5 μl) dissolved in DMSO, and the mixture was incubated at room temperature for 5 min. To the obtained mixture was added ATP solution (2.5 μM ATP, 10 μl), and the mixture was reacted at room temperature for 30 min. After the reaction, the reaction was quenched by adding 50 μL of Kinase Glo Reagent (Promega) to the reaction solution. After reaction at room temperature for 10 min, the luminescence amount was measured using an ARVO multilabel counter (PerkinElmer Life Sciences). The concentration of the test compound necessary for inhibiting the luminescence amount by 50% (IC50 value) was calculated by PRISM 3.0 (Graphpad software).
For orientation: Kinase-Glo measures the ATP left after a reaction by luminescence.

T1 sequence (P49841 whole entry): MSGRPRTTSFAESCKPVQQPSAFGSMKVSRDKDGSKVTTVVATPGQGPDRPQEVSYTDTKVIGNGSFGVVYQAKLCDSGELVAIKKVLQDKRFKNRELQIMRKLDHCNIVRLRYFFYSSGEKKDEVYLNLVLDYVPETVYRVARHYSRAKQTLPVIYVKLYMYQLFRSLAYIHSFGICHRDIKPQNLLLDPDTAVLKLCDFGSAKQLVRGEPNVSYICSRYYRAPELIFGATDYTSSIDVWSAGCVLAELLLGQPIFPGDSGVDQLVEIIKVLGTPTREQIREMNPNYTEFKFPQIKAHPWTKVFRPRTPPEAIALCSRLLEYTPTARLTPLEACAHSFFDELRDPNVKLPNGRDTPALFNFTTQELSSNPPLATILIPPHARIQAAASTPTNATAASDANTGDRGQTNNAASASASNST

Usually IC50 stands for the midpoint of a concentration-inhibition curve. In the case of `O=C(CCc1nc2ccccc2s1)Nc1cc(N2CC(c3ccccc3)OC2=O)ccn1` (centres unmarked) [Example 78, 3-(1,3-benzothiazol-2-yl)-N-(4-(2-oxo-5-phenyl-1,3-oxazolidin-3-yl)pyridin-2-yl)propanamide], the IC50 was below 100 nM. Next, `O=C(Cc1cccs1)Nc1cc(N2CC(c3ccccc3)OC2=O)ccn1` (centres unmarked) [Example 79, N-(4-(2-oxo-5-phenyl-1,3-oxazolidin-3-yl)pyridin-2-yl)-2-(2-thienyl)acetamide]: 230 nM.
